Tests used:
ICAM = test: ICAM-1 assay, PMA-induced ICAM production in human skin fibroblasts; type: cell-based; conditions: PMA (10 nM)-treated; N 4
Protocol: Intracellular adhesion molecules (ICAM) and PEG2 production by human skin fibroblasts can be induced by the inflammatory stimulus PMA (phorbal myristate acetate). PMA represents an external stressor which induces oxidative stress and inflammatory responses in cells. This model is used to model inflammation in vivo.
Primary human foreskin fibroblasts at passage 2 (P2) were seeded into 96-well plates at 10000 cells/well and maintained for 24 hours in an atmosphere of 5% carbon dioxide in Dulbeccos Modified Eagles Medium (DMEM) supplemented with 10% foetal calf serum. […] Phorbal myristate acetate (PMA) (Sigma) was added to the media and the cells incubated for a further 24 hours. […] The fibroblasts/media were then analysed as described below immediately or snap frozen in liquid nitrogen and stored at -70° C. for future analysis. The cells were then counted and data from the dot-blot analysis subsequently standardised to cell number.
ICAM-1 assay: Media were discarded and cells washed with Dulbecco PBS. To the washed cells, 150 μl 0.1% Triton X-100 (Sigma) was added for 3 minutes to extract ICAM from cell membrane. The extracts were transferred to Eppendoff centrifuge tubes and centrifuged at 1000 g for 2 min to remove cell debris. A volume of 100 μl supernatant was used for ICAM assay. The soluble ICAM-1 was assessed with commercially available immunoenzymometric assay kit (R&D Systems). Concentrations of ICAM-1 in the samples were determined based on parallelly running standard curve.

decorin [1] = test: Immunohistochemical analysis of decorin expression in photodamaged skin biopsies after topical retinoic acid; type: in vivo, human (women); conditions: for No. of Participants showing marked increase in expression of decorin: 0.05% retinoic acid topical
Text: (§1) Two groups of women were recruited with identical or nearly identical degrees of mild to moderate photodamage on each outer forearm. They were supplied with 0.05% retinoic acid in a moisturising base (Retinova®) and also with a colour matched moisturising cream with similar sensory characteristics (Dermacare® lotion), but no active ingredients, as a placebo control. Each participant of the two groups applied the Retinova® to one outer forearm and placebo (Dermacare®) to the other outer forearm. Group 1 applied the products daily to their outer forearms for 14 weeks and the Group 2 applied the products to their outer forearms for 28 weeks. At the end of the studies two full thickness 4 mm punch biopsies were taken from the treated areas of each forearm. Immunohistochemical analysis of the biopsy tissue taken from the participants was performed to identify the effect of retinoic acid treatment on the expression of the skin extracellular matrix components, decorin and procollagen-I, as compared with the placebo treated forearms. The following procedure was followed:
(§2) Antibody dilution buffer for wax sections was composed of Tris Buffered Saline (TBS), 3% bovine serum albumin (BSA), 0.05% Triton X-100 and 0.05% sodium azide. Primary antibodies for procollagen-I (amino terminal) were obtained from Chemicon International Inc. (cat# MAB 1912, rat IgGl) and used on wax sections at a dilution of 1:800, overnight at 4° C. after the section had been pre-treated with trypsin (0.5 mg/ml, 25 minutes, 37° C.). Primary antibodies for decorin were obtained from Biogenesis (rabbit polyclonal) and used on wax sections at a dilution of 1:800, overnight at 4° C. Anti-rat biotinylated secondary antibodies, obtained from DAKO (cat# E0468, rabbit polyclonal), were applied to wax sections at a dilution of 1:400. Anti-rabbit biotinylated secondary antibodies, obtained from Amersham (cat# RPN 1004, donkey polyclonal), were applied to wax sections at a dilution of 1:400. Streptavidin conjugated alkaline phosphatase, obtained from Zymed (cat# 43-4322), was used at a concentration of 1:2500. […]

decorin [2] = test: Dot blot assay for decorin synthesis in human dermal fibroblasts; type: cell-based; conditions: Homo sapiens, Fibroblast, 24 h; 1 μm (so in the source); p=0.035, n=4; comparative trial; read-out: Decorin synthesis relative to vehicle treated control value of 100
Protocol: Primary human foreskin fibroblasts at passage 2 (P2) were seeded into 12-well plates at 10000 cells/cm^2 and maintained for 24 hours in an atmosphere of 5% carbon dioxide and 4% oxygen in Dulbeccos Modified Eagles Medium (DMEM) supplemented with 10% foetal calf serum. After this time the cells were washed with serum free DMEM and then incubated in fresh serum free DMEM for a further 60 hours. The fibroblast monolayers were then washed again with serum free DMEM. Test reagents and vehicle controls were added to the cells in triplicate in a final volume of 0.4 ml/well fresh serum free DMEM and incubated for a further 24 hours. This fibroblast conditioned medium was either analysed immediately or snap frozen in liquid nitrogen and stored at -70° C. for future analysis. The cells were then counted and data from the dot-blot analysis subsequently standardised to cell number.
Samples of conditioned medium from dermal fibroblasts treated with vehicle (as a control) or test reagents were supplemented with 20 mM dithiothreitol (1:10 dilution of 200 mM stock solution) and 0.1% sodium dodecylsulphate (1:100 dilution of 10% stock solution), mixed well and then incubated at 75° C. for 2 minutes. A standard for the assay was generated by serial dilution of neat fibroblast conditioned medium from fibroblasts seeded at 10000 cells/cm^2 in a 175 cm^2 flask and maintained in serum free DMEM as described above. Assay samples were subsequently applied in triplicate to a prewetted sheet of Immobilon-P transfer membrane using the 96-well Bio-Dot Apparatus from Bio-Rad as described in the manufacturers guidelines. Approximately 200 μl of medium was applied per well. […] Dot intensity was assessed by computer-assisted image analysis using the quantification tools in ImageQuant™, standardised to cell number and the effects of various test reagents on decorin and procollagen-I synthesis were determined relative to a vehicle treated control value of 100 arbitrary units.

procollagen-I = test: Immunohistochemical analysis of procollagen-I expression in photodamaged skin biopsies after topical retinoic acid; type: in vivo, human (women); conditions: for No. of Participants showing marked increase in expression of procollagen-I: 0.05% retinoic acid topical
Text: as §1, §2

keratinocytes = test: Keratinocyte SDS viability assay (Neutral Red); type: cell-based; conditions: Keratinocyte; SDS 2 μg/ml, PA 0; 24 hours; n 8
Protocol: After incubating for 24 hours the medium was removed and the viability determined by the Neutral Red method.

[3] = Group 1 after 14 weeks, total 16 participants, daily
[4] = Group 2 after 28 weeks, total 15 participants
[5] = topical application of Retinova, vs placebo

## CCCCCCCCCCCCCC(=O)O[C@@H]1[C@@H](C)[C@@]2(O)[C@@H](C=C(CO)C[C@]3(O)C(=O)C(C)=C[C@@H]23)[C@@H]2C(C)(C)[C@]12OC(C)=O [PMA, phorbal myristate acetate, reference compound]
ICAM
  ICAM: 14.42 ± 1.86 ng/mL

## CC1=C(/C=C/C(C)=C/C=C/C(C)=C/C(=O)O)C(C)(C)CCC1 [Retinoic Acid, retinoic acid]
Decorin [1]; [3]
  No. of Participants showing marked increase in expression of decorin: 10
Decorin [1]; [4]
  No. of Participants showing marked increase in expression of decorin: 15
Decorin [1]; [5]
  decorin expression in photodamaged skin (in words): marked upregulation
Decorin [2]
  activity at 1 µM: 138 ± 14%
procollagen-I; [3]
  No. of Participants showing marked increase in expression of procollagen-I: 9
procollagen-I; [4]
  No. of Participants showing marked increase in expression of procollagen-I: 10
procollagen-I; [5]
  procollagen-I expression in photodamaged skin (in words): marked upregulation

## CCCCCCCCCCCCOS(=O)(=O)[O-].[Na+] [SDS, sodium dodecyl sulphate, reference compound]
keratinocytes
  viability at 2 µg/mL: 55.8%

From patent publication US6042841A, “Cosmetic method of treating skin” (Unilever Home & Personal Care USA Division of Conopco, Inc., priority 1998, dated 2000)
